Reference: ChEMBL document CHEMBL1138999, “Synthesis and in vitro evaluation of novel derivatives of diphenylsulfide as serotonin transporter ligands” (Bioorg Med Chem Lett, 2006)

Experiments:
[1] = target: Sodium-dependent dopamine transporter (Homo sapiens, UniProt Q01959); test: Inhibitory activity against DAT
[2] = target: Sodium-dependent noradrenaline transporter (Homo sapiens, UniProt P23975); test: Inhibitory activity against NET
[3] = target: T1, Sodium-dependent serotonin transporter (Homo sapiens, UniProt P31645); test: Displacement of [3H]paroxetine from SERT
T1 sequence (P31645 whole entry): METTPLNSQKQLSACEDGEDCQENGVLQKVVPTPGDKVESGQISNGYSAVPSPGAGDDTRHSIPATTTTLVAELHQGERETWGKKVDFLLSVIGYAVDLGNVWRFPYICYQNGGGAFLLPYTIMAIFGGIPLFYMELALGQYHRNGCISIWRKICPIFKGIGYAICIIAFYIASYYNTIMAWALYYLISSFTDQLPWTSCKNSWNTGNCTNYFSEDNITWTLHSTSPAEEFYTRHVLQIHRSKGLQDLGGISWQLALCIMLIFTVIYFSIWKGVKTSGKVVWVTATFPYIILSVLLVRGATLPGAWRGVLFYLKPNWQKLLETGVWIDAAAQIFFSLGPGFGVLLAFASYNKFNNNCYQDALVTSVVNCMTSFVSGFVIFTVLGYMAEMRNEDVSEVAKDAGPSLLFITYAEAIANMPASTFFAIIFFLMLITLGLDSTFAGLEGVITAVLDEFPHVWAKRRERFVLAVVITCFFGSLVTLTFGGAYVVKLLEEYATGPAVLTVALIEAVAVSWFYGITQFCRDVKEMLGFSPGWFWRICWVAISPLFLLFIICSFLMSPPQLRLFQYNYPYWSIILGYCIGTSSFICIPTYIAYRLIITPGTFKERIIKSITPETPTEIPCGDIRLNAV

[4] = target: T1, Sodium-dependent serotonin transporter; test: Inhibitory activity against SERT

Sequence of Sodium-dependent dopamine transporter (Q01959 whole entry): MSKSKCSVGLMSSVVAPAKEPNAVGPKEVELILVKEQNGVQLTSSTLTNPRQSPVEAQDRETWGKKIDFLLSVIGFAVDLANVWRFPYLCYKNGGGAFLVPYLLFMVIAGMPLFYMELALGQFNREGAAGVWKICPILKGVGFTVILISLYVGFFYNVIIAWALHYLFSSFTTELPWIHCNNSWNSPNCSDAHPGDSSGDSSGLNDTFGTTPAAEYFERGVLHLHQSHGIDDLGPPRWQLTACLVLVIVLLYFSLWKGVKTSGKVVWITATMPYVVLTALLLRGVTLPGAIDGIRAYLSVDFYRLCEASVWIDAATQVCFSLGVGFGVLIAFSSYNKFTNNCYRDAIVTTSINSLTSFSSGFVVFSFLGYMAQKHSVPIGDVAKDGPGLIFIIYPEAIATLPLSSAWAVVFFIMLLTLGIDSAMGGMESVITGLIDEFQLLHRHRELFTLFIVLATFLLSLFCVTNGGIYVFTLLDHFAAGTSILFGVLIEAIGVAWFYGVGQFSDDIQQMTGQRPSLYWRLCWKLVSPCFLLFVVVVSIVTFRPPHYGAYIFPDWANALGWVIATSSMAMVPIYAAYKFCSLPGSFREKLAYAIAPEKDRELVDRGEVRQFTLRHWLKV
Sequence of Sodium-dependent noradrenaline transporter (P23975 whole entry): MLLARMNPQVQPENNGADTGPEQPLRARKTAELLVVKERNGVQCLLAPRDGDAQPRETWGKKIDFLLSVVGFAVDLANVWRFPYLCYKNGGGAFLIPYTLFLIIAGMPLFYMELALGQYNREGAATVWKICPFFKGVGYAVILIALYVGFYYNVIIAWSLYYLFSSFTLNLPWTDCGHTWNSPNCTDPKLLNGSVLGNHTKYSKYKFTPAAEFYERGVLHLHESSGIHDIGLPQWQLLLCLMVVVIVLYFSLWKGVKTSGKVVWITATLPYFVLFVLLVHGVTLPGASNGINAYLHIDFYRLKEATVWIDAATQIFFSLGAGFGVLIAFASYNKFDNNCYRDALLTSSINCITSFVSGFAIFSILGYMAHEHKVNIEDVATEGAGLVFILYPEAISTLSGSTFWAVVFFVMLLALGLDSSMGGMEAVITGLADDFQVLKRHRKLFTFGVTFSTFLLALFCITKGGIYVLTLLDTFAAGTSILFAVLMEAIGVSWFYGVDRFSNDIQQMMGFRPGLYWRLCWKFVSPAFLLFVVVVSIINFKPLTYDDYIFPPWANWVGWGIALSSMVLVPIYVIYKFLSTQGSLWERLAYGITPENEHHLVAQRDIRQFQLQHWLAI

Question: Which IC50 [1] does the source give for `Cc1ccc(Nc2ccccc2CN(C)C)c(N)c1` here?
Answer: Its IC50 is > 100 nM.

Question: What about the IC50 [2] of the same compound?
Answer: Its IC50 is > 100 nM.

Question: And the Ki [3]?
Answer: Its Ki is 10.3 nM.

Question: Which IC50 [1] does the source give for `Cc1ccc(N)c(-c2ccccc2CN(C)C)c1` here?
Answer: Its IC50 is > 100 nM.

Question: And the IC50 [4]?
Answer: The IC50 was > 100 nM.

Question: What about the IC50 [2] of the same compound?
Answer: The IC50 was > 100 nM.

Question: For `Cc1ccc([S+]([O-])c2ccccc2CN(C)C)c(N)c1` (centres undefined), which IC50 [1] is on record?
Answer: The IC50 was > 100 nM.

Question: And the IC50 [2]?
Answer: Its IC50 is > 100 nM.

Question: And the Ki [3]?
Answer: The Ki was 4.15 nM.

Question: How did the IC50 [1] turn out when `Cc1ccc(C(=O)c2ccccc2CN(C)C)c(N)c1` was run?
Answer: Its IC50 is > 100 nM.

Question: And the IC50 [4]?
Answer: Its IC50 is > 100 nM.

Question: What about the IC50 [2] of the same compound?
Answer: Its IC50 is > 100 nM.

Question: For `Cc1ccc(Sc2ccccc2CN(C)C)c(N)c1`, which IC50 [1] is on record?
Answer: Its IC50 is > 100 nM.

Question: What about the IC50 [2] of the same compound?
Answer: The IC50 was > 100 nM.

Question: And the Ki [3]?
Answer: Its Ki is 1.65 nM.

Question: How did the IC50 [1] turn out when `Cc1ccc(N(Cc2ccccc2)c2ccccc2CN(C)C)c(N)c1` was run?
Answer: Its IC50 is > 100 nM.

Question: And the IC50 [4]?
Answer: Its IC50 is > 100 nM.

Question: And the IC50 [2]?
Answer: The IC50 was > 100 nM.

Question: Which IC50 [1] does the source give for `Cc1ccc(C(O)c2ccccc2CN(C)C)c(N)c1` (centres undefined) here?
Answer: The IC50 was > 100 nM.

Question: What about the IC50 [4] of the same compound?
Answer: The IC50 was > 100 nM.

Question: And the IC50 [2]?
Answer: Its IC50 is > 100 nM.

Question: Which results are given for `CCN(c1ccc(C)cc1N)c1ccccc1CN(C)C`?
Answer: IC50 [1]: > 100 nM; IC50 [4]: > 100 nM; IC50 [2]: > 100 nM

Question: Which results are given for `Cc1ccc(N(C)c2ccccc2CN(C)C)c(N)c1`?
Answer: IC50 [1]: > 100 nM; IC50 [4]: > 100 nM; IC50 [2]: > 100 nM

Question: With `Cc1ccc(N(c2ccccc2)c2ccccc2CN(C)C)c(N)c1` as the compound, how does the IC50 [1] read?
Answer: Its IC50 is > 100 nM.

Question: What about the IC50 [4] of the same compound?
Answer: The IC50 was > 100 nM.

Question: And the IC50 [2]?
Answer: The IC50 was > 100 nM.

Question: `Cc1ccc(S(=O)(=O)c2ccccc2CN(C)C)c(N)c1` was tested. Which IC50 [1] did it give?
Answer: The IC50 was > 100 nM.

Question: And the IC50 [4]?
Answer: The IC50 was > 100 nM.

Question: And the IC50 [2]?
Answer: Its IC50 is > 100 nM.

Question: Which IC50 [1] does the source give for `Cc1ccc(Oc2ccccc2CN(C)C)c(N)c1` here?
Answer: The IC50 was > 100 nM.

Question: And the IC50 [2]?
Answer: The IC50 was > 100 nM.

Question: And the Ki [3]?
Answer: The Ki was 0.53 nM.

Question: For `COC(c1ccc(C)cc1N)c1ccccc1CN(C)C` (centres undefined), which IC50 [1] is on record?
Answer: Its IC50 is > 100 nM.

Question: What about the IC50 [4] of the same compound?
Answer: Its IC50 is > 100 nM.

Question: What about the IC50 [2] of the same compound?
Answer: The IC50 was > 100 nM.
